{"source": "the supplement of paper PMC10307832", "experiment_in_all_cases": "relative viability (nuclei count vs DMSO), 5 days (fraction); higher = more cells survive", "key": {"[1]": {"test_system": "EKVX", "how_it_was_run": "(§1)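 Five library-drug doses in √10 steps were combined with a fixed anchor-drug dose, or a single drug was given alone, by pin tool to lung cancer cell lines in 1536-well plates the day after seeding. Nuclei were stained and counted after 5 days. Relative viability is the nuclei count in treated wells over that in vehicle wells, taken as the median of duplicate plates.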"}, "[2]": {"test_system": "H3255", "how_it_was_run": "as §1"}, "[3]": {"test_system": "HCC-15", "how_it_was_run": "as §1"}, "[4]": {"test_system": "HCC-827", "how_it_was_run": "as §1"}, "[5]": {"test_system": "LCLC-97TM1", "how_it_was_run": "as §1"}, "[6]": {"test_system": "LK-2", "how_it_was_run": "as §1"}, "[7]": {"test_system": "NCI-H1355", "how_it_was_run": "as §1"}, "[8]": {"test_system": "NCI-H1650", "how_it_was_run": "as §1"}, "[9]": {"test_system": "NCI-H1734", "how_it_was_run": "as §1"}, "[10]": {"test_system": "NCI-H1755", "how_it_was_run": "as §1"}, "[11]": {"test_system": "NCI-H1975", "how_it_was_run": "as §1"}, "[12]": {"test_system": "NCI-H2342", "how_it_was_run": "as §1"}, "[13]": {"test_system": "NCI-H2405", "how_it_was_run": "as §1"}, "[14]": {"test_system": "NCI-H322M", "how_it_was_run": "as §1"}, "[15]": {"test_system": "NCI-H520", "how_it_was_run": "as §1"}, "[16]": {"test_system": "NCI-H661", "how_it_was_run": "as §1"}, "[17]": {"test_system": "PC-14", "how_it_was_run": "as §1"}, "[18]": {"test_system": "PC-3 [JPC-3]", "how_it_was_run": "as §1"}, "[19]": {"test_system": "RERF-LC-KJ", "how_it_was_run": "as §1"}}}
{"smiles": "COc1nc(C)cnc1NS(=O)(=O)c1cccnc1-c1ccc(-c2nnco2)cc1", "note": "[Zibotentan] + Nc1ncn([C@H]2C[C@H](O)[C@@H](CO)O2)c(=O)n1 [Decitabine] (partner 2 µM)", "values": [{"measurement": "relative viability", "setting": "[1]; first compound 0.08 µM", "result": 0.325}, {"measurement": "relative viability", "setting": "[1]; first compound 0.253 µM", "result": 0.339}, {"measurement": "relative viability", "setting": "[1]; first compound 0.8 µM", "result": 0.286}, {"measurement": "relative viability", "setting": "[1]; first compound 2.53 µM", "result": 0.346}, {"measurement": "relative viability", "setting": "[2]; first compound 0.08 µM", "result": 0.671}, {"measurement": "relative viability", "setting": "[2]; first compound 0.253 µM", "result": 0.601}, {"measurement": "relative viability", "setting": "[2]; first compound 0.8 µM", "result": 0.586}, {"measurement": "relative viability", "setting": "[2]; first compound 2.53 µM", "result": 0.564}, {"measurement": "relative viability", "setting": "[3]; first compound 0.08 µM", "result": 0.607}, {"measurement": "relative viability", "setting": "[3]; first compound 0.253 µM", "result": 0.538}, {"measurement": "relative viability", "setting": "[3]; first compound 0.8 µM", "result": 0.727}, {"measurement": "relative viability", "setting": "[3]; first compound 2.53 µM", "result": 0.696}, {"measurement": "relative viability", "setting": "[4]; first compound 0.08 µM", "result": 0.341}, {"measurement": "relative viability", "setting": "[4]; first compound 0.253 µM", "result": 0.333}, {"measurement": "relative viability", "setting": "[4]; first compound 0.8 µM", "result": 0.341}, {"measurement": "relative viability", "setting": "[4]; first compound 2.53 µM", "result": 0.343}, {"measurement": "relative viability", "setting": "[5]; first compound 0.08 µM", "result": 0.26}, {"measurement": "relative viability", "setting": "[5]; first compound 0.253 µM", "result": 0.266}, {"measurement": "relative viability", "setting": "[5]; first compound 0.8 µM", "result": 0.229}, {"measurement": "relative viability", "setting": "[5]; first compound 2.53 µM", "result": 0.246}, {"measurement": "relative viability", "setting": "[6]; first compound 0.08 µM", "result": 0.387}, {"measurement": "relative viability", "setting": "[6]; first compound 0.253 µM", "result": 0.289}, {"measurement": "relative viability", "setting": "[6]; first compound 0.8 µM", "result": 0.317}, {"measurement": "relative viability", "setting": "[6]; first compound 2.53 µM", "result": 0.213}, {"measurement": "relative viability", "setting": "[7]; first compound 0.08 µM", "result": 0.346}, {"measurement": "relative viability", "setting": "[7]; first compound 0.253 µM", "result": 0.337}, {"measurement": "relative viability", "setting": "[7]; first compound 0.8 µM", "result": 0.368}, {"measurement": "relative viability", "setting": "[7]; first compound 2.53 µM", "result": 0.35}, {"measurement": "relative viability", "setting": "[8]; first compound 0.08 µM", "result": 0.393}, {"measurement": "relative viability", "setting": "[8]; first compound 0.8 µM", "result": 0.626}, {"measurement": "relative viability", "setting": "[8]; first compound 2.53 µM", "result": 0.488}, {"measurement": "relative viability", "setting": "[9]; first compound 0.08 µM", "result": 0.486}, {"measurement": "relative viability", "setting": "[9]; first compound 0.253 µM", "result": 0.496}, {"measurement": "relative viability", "setting": "[9]; first compound 0.8 µM", "result": 0.513}, {"measurement": "relative viability", "setting": "[9]; first compound 2.53 µM", "result": 0.541}, {"measurement": "relative viability", "setting": "[10]; first compound 0.08 µM", "result": 0.737}, {"measurement": "relative viability", "setting": "[10]; first compound 0.253 µM", "result": 0.616}, {"measurement": "relative viability", "setting": "[10]; first compound 0.8 µM", "result": 0.8}, {"measurement": "relative viability", "setting": "[10]; first compound 2.53 µM", "result": 0.732}, {"measurement": "relative viability", "setting": "[11]; first compound 0.08 µM", "result": 0.565}, {"measurement": "relative viability", "setting": "[11]; first compound 0.253 µM", "result": 0.384}, {"measurement": "relative viability", "setting": "[11]; first compound 0.8 µM", "result": 0.403}, {"measurement": "relative viability", "setting": "[11]; first compound 2.53 µM", "result": 0.377}, {"measurement": "relative viability", "setting": "[12]; first compound 0.08 µM", "result": 0.659}, {"measurement": "relative viability", "setting": "[12]; first compound 0.253 µM", "result": 0.776}, {"measurement": "relative viability", "setting": "[12]; first compound 0.8 µM", "result": 0.707}, {"measurement": "relative viability", "setting": "[12]; first compound 2.53 µM", "result": 0.71}, {"measurement": "relative viability", "setting": "[13]; first compound 0.08 µM", "result": 0.764}, {"measurement": "relative viability", "setting": "[13]; first compound 0.253 µM", "result": 0.684}, {"measurement": "relative viability", "setting": "[13]; first compound 0.8 µM", "result": 0.767}, {"measurement": "relative viability", "setting": "[13]; first compound 2.53 µM", "result": 0.73}, {"measurement": "relative viability", "setting": "[14]; first compound 0.08 µM", "result": 0.74}, {"measurement": "relative viability", "setting": "[14]; first compound 0.253 µM", "result": 0.679}, {"measurement": "relative viability", "setting": "[14]; first compound 0.8 µM", "result": 0.733}, {"measurement": "relative viability", "setting": "[14]; first compound 2.53 µM", "result": 0.856}, {"measurement": "relative viability", "setting": "[15]; first compound 0.08 µM", "result": 0.62}, {"measurement": "relative viability", "setting": "[15]; first compound 0.253 µM", "result": 0.441}, {"measurement": "relative viability", "setting": "[15]; first compound 0.8 µM", "result": 0.514}, {"measurement": "relative viability", "setting": "[15]; first compound 2.53 µM", "result": 0.575}, {"measurement": "relative viability", "setting": "[16]; first compound 0.08 µM", "result": 0.557}, {"measurement": "relative viability", "setting": "[16]; first compound 0.253 µM", "result": 0.529}, {"measurement": "relative viability", "setting": "[16]; first compound 0.8 µM", "result": 0.57}, {"measurement": "relative viability", "setting": "[16]; first compound 2.53 µM", "result": 0.552}, {"measurement": "relative viability", "setting": "[17]; first compound 0.08 µM", "result": 0.267}, {"measurement": "relative viability", "setting": "[17]; first compound 0.253 µM", "result": 0.198}, {"measurement": "relative viability", "setting": "[17]; first compound 0.8 µM", "result": 0.287}, {"measurement": "relative viability", "setting": "[17]; first compound 2.53 µM", "result": 0.265}, {"measurement": "relative viability", "setting": "[18]; first compound 0.08 µM", "result": 0.836}, {"measurement": "relative viability", "setting": "[18]; first compound 0.253 µM", "result": 0.777}, {"measurement": "relative viability", "setting": "[18]; first compound 0.8 µM", "result": 0.85}, {"measurement": "relative viability", "setting": "[18]; first compound 2.53 µM", "result": 0.851}, {"measurement": "relative viability", "setting": "[19]; first compound 0.08 µM", "result": 0.699}, {"measurement": "relative viability", "setting": "[19]; first compound 0.253 µM", "result": 0.558}, {"measurement": "relative viability", "setting": "[19]; first compound 0.8 µM", "result": 0.708}, {"measurement": "relative viability", "setting": "[19]; first compound 2.53 µM", "result": 0.634}]}
